Assay [1] addresses T1, purified αvβ3 receptor (Homo sapiens, UniProt P05106+P06756). The arrangement: method as in PMID 23424096, PMID 28934103, PMID 28168158, PMID 31275795. As to conditions: reference compounds, measured using the same procedure; biotinylated vitronectin; mean ± SD; ref [29],[48],[49],[50]; cited from earlier work.
Assay [2] addresses T1, purified αvβ3 receptor. Put plainly: Competitive binding assay to purified αvβ3 receptor (displacement of biotinylated vitronectin). The settings on record: for IC50: immobilized integrin αvβ3, biotinylated vitronectin 1 μg mL−1, mean ± SD of duplicate determinations; for selectivity ratio (IC50α5β1/IC50αvβ3): ratio of competitive binding IC50 values, α5β1 over αvβ3. As for the experimental part:
(§1) The cyclic peptidomimetics 8–10 were analyzed in a first instance for their competitive binding to purified αvβ3 and α5β1 receptors with respect to the biotinylated vitronectin or fibronectin, respectively. The IC50 values are collected in Table 1, where the values of Cilengitide (1a), cyclo-[RGDfV] (1b), cyclo-[DKP-RGD] (4), and cyclo-[DKP-isoDGR] (7), measured using the same procedure, are included as reference compounds for the RGD and isoDGR series. The new RGD compounds cyclo-[-Arg-Gly-Asp-(1S,2R)-β-ACPC-Val-] (8) and cyclo-[-Arg-Gly-Asp-(1R,2S)-β-ACPC-Val-] […] (10) is a micromolar binder for both integrins, much weaker than cyclo-[DKP-isoDGR] (7) in the case of αvβ3.
(§2) The inhibition assays of biotinylated vitronectin and fibronectin binding to the αvβ3 and α5β1 receptors, for compounds 8–10 were carried out as previously reported. […] Screening assays were performed by incubating the immobilized integrin αvβ3 or α5β1 with increasing concentrations (10^−12–10^−5 M/10^−11–10^−4 M) of the RGD and isoDGR ligands in the presence of the corresponding biotinylated ECM protein (1 μg mL^−1), and measuring bound protein in the presence of the competitive ligand. Each data point is the result of the average of triplicate wells and was analyzed by nonlinear regression analysis with the GraphPad Prism software. Each experiment was repeated in duplicate. IC50 values are the arithmetic mean ± the standard deviation (SD) of these duplicate determinations.

The target in assay [3] is T2, purified α5β1 receptor (Homo sapiens, UniProt P05556+P08648). Put plainly: Competitive binding assay to purified α5β1 receptor (displacement of biotinylated fibronectin). As to conditions: immobilized integrin α5β1, biotinylated fibronectin 1 μg mL−1; mean ± SD of duplicate determinations. On the procedure:
as §1, §2

The target in the next assay is WM115 cells (Homo sapiens, UniProt P05106+P06756). The assay is classed as cell-based. On the procedure:
WM-115 cells were washed with MEM (Minimum Essential Medium)-buffer, detached with trypsin and resuspended to a cell density of 1 × 10^5 cells/mL. WM-115 cells were then incubated with fluorescein diacetate for 30 min at 37 °C in the dark, washed with MEM medium and resuspended with MEM medium containing CaCl2 and MgCl2 (2 mM) and incubated on ice for 30 min in the dark. […] 0.00195313, 0.00097565, 0.00048828, 0.00024414). Cells and peptide were incubated for 30 min at 37° C in the dark and afterwards added to the 96-well ELISA-plates previously coated with vitronectin and incubated for 1 h at 37 °C in the dark. Unbound cells were aspirated, and bound cells were washed three times with MEM medium and fluorescence measured (λex: 485 nm, λem: 514 nm) with an InfiniteTM 200 Microplate Reader (Tecan, Männedorf, Switzerland). […] The IC50 values were determined four times per peptide in two independent assays here reported, and the final values are the arithmetic mean ± the standard deviation (SD) of the two independent assays. The reference peptide […] was tested together with the peptides.

The target of assay [4] is T2, purified α5β1 receptor. The arrangement: method as in PMID 23424096, PMID 28934103, PMID 28168158, PMID 31275795. As to conditions: reference compounds, measured using the same procedure; biotinylated fibronectin; mean ± SD; ref [29],[48],[49],[50]; cited from earlier work.
The mark [5] stands for this setting: read-out: IC50 (50% inhibition of cell adhesion to vitronectin), WM115 cells, fluorescein labeled, mean ± SD of two independent assays.
Setting [6] is: read-out: IC50 cell adhesion, 1° Assay, WM-115 cells, vitronectin-coated plates, first independent assay (Figure S4).
Setting [7] is: read-out: IC50 cell adhesion, 2° Assay, WM-115 cells, vitronectin-coated plates, second independent assay (Figure S5).

Read-outs that look alike come from different tables or passages of the source. Starred links: 1 amine or outer side, 2 acyl side, 3 side chain; linkers in the order of their positions; H or OH if unused. Positions of bridges follow the written chain, without caps; N, C: chain ends. Non-standard residues stand in square brackets, D forms with d. Residues, ends and D or L forms follow the SMILES beside them. X1 = O=C([C@@H]1CCC[C@@H]1N[*:1])[*:2]

As to “cyclo[Arg-Gly-Asp-NMe Val-D-Phe] [Compound 1a]”, the IC50 with purified αvβ3 receptor [1] was 0.00071 ± 6e-05 µM.
With `CC(C)[C@@H]1NC(=O)[C@H]2CCC[C@H]2NC(=O)[C@H](CC(=O)O)NC(=O)CNC(=O)[C@H](CCCNC(=N)N)NC1=O` [Compound 8, cyclo-[-Arg-Gly-Asp-(1S,2R)-β-ACPC-Val-]], the half-maximal inhibitory concentration (IC50) at purified αvβ3 receptor [2] was found to be 0.0443 ± 0.004 µM; on purified α5β1 receptor [3], 3.23 ± 1.47 µM; at WM115 cells (setting [5]), 75 ± 32.5 µM; on WM115 cells (setting [6]), 52 µM; on WM115 cells (setting [7]), 98 µM. Also, the “selectivity ratio (IC50α5β1/IC50αvβ3)” value on purified αvβ3 receptor [2] is reported as roughly 73.
As for `CC(C)[C@@H]1NC(=O)[C@@H]2CCC[C@@H]2NC(=O)[C@H](CCCNC(=N)N)NC(=O)CNC(=O)C[C@@H](C(=O)O)NC1=O` [Compound 10, cyclo-[-isoAsp-Gly-Arg-(1R,2S)-β-ACPC-Val-]] (GR[X1]VD-OH; lactam N-5), the IC50 at purified αvβ3 receptor [2] was 5.36 ± 0.281 µM; on purified α5β1 receptor [3], 2.33 ± 0.134 µM; at WM115 cells (setting [6]), greater than 300 µM; at WM115 cells (setting [7]), greater than 300 µM. In addition, the “IC50 (50% inhibition of cell adhesion to vitronectin)” value at WM115 cells (WM115 cells, fluorescein labeled, mean ± SD of two independent assays) is reported as “could not be measured”.
For “cyclo-(-DKP-isoAsp-Gly-Arg-) [Compound 7]”, the IC50 at purified αvβ3 receptor [1] is 0.0092 ± 0.0011 µM; at purified α5β1 receptor [4], 1.07 ± 0.228 µM.
As to cyclo-[-DKP-Arg-Gly-Asp-] [Compound 4], the IC50 on purified αvβ3 receptor [1] is 0.0045 ± 0.0011 µM; on purified α5β1 receptor [4], 0.532 ± 0.035 µM.
For the compound `CC(C)[C@@H]1NC(=O)[C@@H]2CCC[C@@H]2NC(=O)[C@H](CC(=O)O)NC(=O)CNC(=O)[C@H](CCCNC(=N)N)NC1=O` [Compound 9, cyclo-[-Arg-Gly-Asp-(1R,2S)-β-ACPC-Val-]], the IC50 on purified αvβ3 receptor [2] was 0.039 ± 0.0011 µM; on purified α5β1 receptor [3], 0.468 ± 0.114 µM; on WM115 cells (setting [5]), 124 µM; at WM115 cells (setting [6]) it was 117 µM; at WM115 cells (setting [7]) it was 132 µM. The “selectivity ratio (IC50α5β1/IC50αvβ3)” value at purified αvβ3 receptor [2] is recorded as “about 12”.

As usually defined, the IC50 is the point on the concentration scale where inhibition reaches its midpoint.
